# Laboratory results reported in ChEMBL document CHEMBL3885861, “Open TG-GATES”.
# Species on record: Rattus norvegicus
# Experiment: Open TG-GATES - Regimen: Single
# Type: toxicity, organism-based, Sprague-Dawley
# Set-up: regimen Single, gender Male, age 6 weeks
# Details: in vivo, po, 0 mg/kg, route gavage, dose level Control; for APTT / Bas / Eos / Fbg / Hb / Ht / Lym / MCH / MCHC / MCV / Mono / Neu / PT / Plat / RBC / Ret / WBC: tissue Blood; for KIDNEY_L / KIDNEY_R / KIDNEY_TOTAL: tissue Kidney; for LIVER: tissue Liver; for A/G / ALP / ALT / AST / BUN / CRE / Ca / Cl / DBIL / GLC / IP / K / LDH / Na / PL / RALB / TBIL / TC / TG / TP / gamma-GTP: tissue Plasma
compound,measurement,setting,value
CC(=O)Nc1ccc2c(c1)Cc1ccccc1-2 [2-ACETYLAMINOFLUORENE],TERMINAL_BW,3 h,224.8 g
same,APTT,3 h,20.9 s
same,Bas,3 h,0%
same,Eos,3 h,1%
same,Fbg,3 h,222.8 mg/dL
same,Hb,3 h,13.6 g/dL
same,Ht,3 h,39.5%
same,Lym,3 h,76.8%
same,MCH,3 h,21.5 pg
same,MCHC,3 h,34.5%
same,MCV,3 h,62.4 fL
same,Mono,3 h,2.4%
same,Neu,3 h,18.4%
same,PT,3 h,11.9 s
same,Plat,3 h,128.1 x10_4/uL
same,RBC,3 h,632.6 x10_4/ul
same,Ret,3 h,7.4%
same,WBC,3 h,87.7 x10_2/uL
same,KIDNEY_L,3 h,1 g
same,KIDNEY_R,3 h,1 g
same,KIDNEY_TOTAL,3 h,2 g
same,LIVER,3 h,10.3 g
same,A/G,3 h,1.7
same,ALP,3 h,1018.4 IU/L
same,ALT,3 h,36.6 IU/L
same,AST,3 h,77.4 IU/L
same,BUN,3 h,10.8 mg/dL
same,CRE,3 h,0.4 mg/dL
same,Ca,3 h,10.5 mg/dL
same,Cl,3 h,103.2 meq/L
same,DBIL,3 h,0.072 mg/dL
same,GLC,3 h,194.8 mg/dL
same,IP,3 h,9.7 mg/dL
same,K,3 h,4 meq/L
same,LDH,3 h,161.8 IU/L
same,Na,3 h,141 meq/L
same,PL,3 h,141.6 mg/dL
same,RALB,3 h,3.4 g/dL
same,TBIL,3 h,0.1 mg/dL
same,TC,3 h,77.8 mg/dL
same,TG,3 h,61.6 mg/dL
same,TP,3 h,5.5 g/dL
same,gamma-GTP,3 h,0.8 IU/L
same,TERMINAL_BW,6 h,219.6 g
same,APTT,6 h,20.9 s
same,Bas,6 h,0.6%
same,Eos,6 h,0.6%
same,Fbg,6 h,225.4 mg/dL
same,Hb,6 h,14.2 g/dL
same,Ht,6 h,40.9%
same,Lym,6 h,78.2%
same,MCH,6 h,21.8 pg
same,MCHC,6 h,34.6%
same,MCV,6 h,63.1 fL
same,Mono,6 h,2.8%
same,Neu,6 h,16.8%
same,PT,6 h,12.2 s
same,Plat,6 h,131.8 x10_4/uL
same,RBC,6 h,649.8 x10_4/ul
same,Ret,6 h,6.9%
same,WBC,6 h,108.9 x10_2/uL
same,KIDNEY_L,6 h,1 g
same,KIDNEY_R,6 h,1 g
same,KIDNEY_TOTAL,6 h,2 g
same,LIVER,6 h,9.3 g
same,A/G,6 h,1.7
same,ALP,6 h,956.2 IU/L
same,ALT,6 h,32.4 IU/L
same,AST,6 h,70.4 IU/L
same,BUN,6 h,9.6 mg/dL
same,CRE,6 h,0.4 mg/dL
same,Ca,6 h,10.5 mg/dL
same,Cl,6 h,101.4 meq/L
same,DBIL,6 h,0.076 mg/dL
same,GLC,6 h,196 mg/dL
same,IP,6 h,9.7 mg/dL
same,K,6 h,4.2 meq/L
same,LDH,6 h,166.6 IU/L
same,Na,6 h,140.4 meq/L
same,PL,6 h,139 mg/dL
same,RALB,6 h,3.4 g/dL
same,TBIL,6 h,0.1 mg/dL
same,TC,6 h,72.2 mg/dL
same,TG,6 h,89.8 mg/dL
same,TP,6 h,5.4 g/dL
same,gamma-GTP,6 h,1.2 IU/L
same,TERMINAL_BW,9 h,217 g
same,APTT,9 h,17.7 s
same,Bas,9 h,0.8%
same,Eos,9 h,0.8%
same,Fbg,9 h,241.4 mg/dL
same,Hb,9 h,13.9 g/dL
same,Ht,9 h,40.5%
same,Lym,9 h,75.2%
same,MCH,9 h,21.8 pg
same,MCHC,9 h,34.3%
same,MCV,9 h,63.4 fL
same,Mono,9 h,2.8%
same,Neu,9 h,19.4%
same,PT,9 h,12 s
same,Plat,9 h,124 x10_4/uL
same,RBC,9 h,639.4 x10_4/ul
same,Ret,9 h,6.7%
same,WBC,9 h,86.2 x10_2/uL
same,KIDNEY_L,9 h,1 g
same,KIDNEY_R,9 h,1 g
same,KIDNEY_TOTAL,9 h,1.9 g
same,LIVER,9 h,9.2 g
same,A/G,9 h,1.5
same,ALP,9 h,861.2 IU/L
same,ALT,9 h,32.4 IU/L
same,AST,9 h,67.8 IU/L
same,BUN,9 h,11.2 mg/dL
same,CRE,9 h,0.4 mg/dL
same,Ca,9 h,10.6 mg/dL
same,Cl,9 h,104 meq/L
same,DBIL,9 h,0.06 mg/dL
same,GLC,9 h,210.4 mg/dL
same,IP,9 h,9 mg/dL
same,K,9 h,3.7 meq/L
same,LDH,9 h,239.6 IU/L
same,Na,9 h,141 meq/L
same,PL,9 h,134.8 mg/dL
same,RALB,9 h,3.5 g/dL
same,TBIL,9 h,0.1 mg/dL
same,TC,9 h,73.6 mg/dL
same,TG,9 h,49.2 mg/dL
same,TP,9 h,5.7 g/dL
same,gamma-GTP,9 h,1 IU/L
same,TERMINAL_BW,24 h,237.9 g
same,APTT,24 h,20.8 s
same,Bas,24 h,0.2%
same,Eos,24 h,0.8%
same,Fbg,24 h,217.2 mg/dL
same,Hb,24 h,13.8 g/dL
same,Ht,24 h,40.1%
same,Lym,24 h,82%
same,MCH,24 h,22.5 pg
same,MCHC,24 h,34.3%
same,MCV,24 h,65.4 fL
same,Mono,24 h,3%
same,Neu,24 h,13.2%
same,PT,24 h,11.9 s
same,Plat,24 h,121.3 x10_4/uL
same,RBC,24 h,612 x10_4/ul
same,Ret,24 h,6.8%
same,WBC,24 h,101.1 x10_2/uL
same,KIDNEY_L,24 h,1.1 g
same,KIDNEY_R,24 h,1.1 g
same,KIDNEY_TOTAL,24 h,2.1 g
same,LIVER,24 h,11.4 g
same,A/G,24 h,1.7
same,ALP,24 h,1055.8 IU/L
same,ALT,24 h,40 IU/L
same,AST,24 h,69.4 IU/L
same,BUN,24 h,14.8 mg/dL
same,CRE,24 h,0.4 mg/dL
same,Ca,24 h,10.8 mg/dL
same,Cl,24 h,103.8 meq/L
same,DBIL,24 h,0.09 mg/dL
same,GLC,24 h,214.6 mg/dL
same,IP,24 h,8.3 mg/dL
same,K,24 h,3.9 meq/L
same,LDH,24 h,192.8 IU/L
same,Na,24 h,140.4 meq/L
same,PL,24 h,132.2 mg/dL
same,RALB,24 h,3.4 g/dL
same,TBIL,24 h,0.2 mg/dL
same,TC,24 h,64.2 mg/dL
same,TG,24 h,95.8 mg/dL
same,TP,24 h,5.4 g/dL
same,gamma-GTP,24 h,1.2 IU/L
